Results published in US9642853B2, “Stable pharmaceutical composition containing folates” (APROFOL AG, priority 2013, dated 2017).

Tests used:
[1] = refrigerator: 2 to 8° C.; cited from earlier work
Solubility in water = type: physicochemical

solubility in water (Solubility in water)	SMILES	true solubility of leucovorin (calculated as folinic acid) [1] [mg per ml]
	Nc1nc2c(c(=O)[nH]1)N(C=O)C(CNc1ccc(C(=O)N[C@@H](CCC(=O)O)C(=O)O)cc1)CN2 (single isomer, unassigned) [leucovorin]	3
almost insoluble in water	Nc1nc2c(c(=O)[nH]1)N(C=O)C(CNc1ccc(C(=O)NC(CCC(=O)[O-])C(=O)[O-])cc1)CN2.[Zn+2] (centres unmarked) [leucovorin zinc]	
